Assay results from ChEMBL document CHEMBL1158604, “New pyrazolo[1,5a]pyrimidines as orally active inhibitors of Lck” (Bioorg Med Chem Lett, 2010).
pIC50: −log10 of the molar value. Calls of active or inactive are those of the source. The calls are words filed in the database; no cut-off is given here.

Legend:
[1] = target: T1, Tyrosine-protein kinase Lck (Homo sapiens, UniProt P06239)
[2] = target: Proto-oncogene tyrosine-protein kinase Src (Homo sapiens, UniProt P12931)
[3] = target: Tyrosine-protein kinase HCK (Homo sapiens, UniProt P08631)
[4] = target: Vascular endothelial growth factor receptor 2 (Homo sapiens, UniProt P35968)
[5] = Oral bioavailability in rat; type: ADME, organism-based; conditions: in vivo
Mus musculus [6] = assay: Immunosuppressive activity in BALB/c mouse assessed as concanavalin A-induced T cell activation at 100 mg/kg, po relative to control; type: functional, organism-based; design: dose 100 mg/kg
Mus musculus [7] = assay: Immunosuppressive activity in BALB/c mouse assessed as CD3 antibody-induced IL2 production at 100 mg/kg, po relative to control; type: functional
Mus musculus [8] = assay: Immunosuppressive activity in BALB/c mouse assessed as CD3 antibody-induced IL2 production at 30 mg/kg, po relative to control; type: functional
Mus musculus [9] = assay: Immunosuppressive activity in BALB/c mouse assessed as CD3 antibody-induced IL2 production at 10 mg/kg, po relative to control; type: functional
[10] = target: Cyclin-dependent kinase 2/cyclin A (Homo sapiens, UniProt P24941); assay: Inhibition of CDK2/cyclinA; type: protein-complex assay
[11] = target: T1, Tyrosine-protein kinase Lck; assay: Inhibition of LCK in human Jurkat cells assessed as ZAP70 phosphorylation by FACS assay; type: cell-based
[12] = Clearance in rat; type: ADME, organism-based; conditions: in vivo
[13] = Half life in rat; type: ADME, organism-based; conditions: in vivo
Angiopoietin-1 receptor = Angiopoietin-1 receptor (Homo sapiens, UniProt Q02763); assay: Inhibition of tie2
[14] = target: Tyrosine-protein kinase ABL1 (Homo sapiens, UniProt P00519); assay: Inhibition of ABL
[15] = Inhibition of cABL T315 mutant
[16] = target: ALK tyrosine kinase receptor (Homo sapiens, UniProt Q9UM73); assay: Inhibition of Alk
[17] = target: Fibroblast growth factor receptor 3 (Homo sapiens, UniProt P22607); assay: Inhibition of FGFR3K
[18] = target: Receptor tyrosine-protein kinase erbB-2 (Homo sapiens, UniProt P04626); assay: Inhibition of Her2
[19] = target: Insulin-like growth factor 1 receptor (Homo sapiens, UniProt P08069); assay: Inhibition of IGF1R
Insulin receptor = Insulin receptor (Homo sapiens, UniProt P06213); assay: Inhibition of INSR
[20] = target: Tyrosine-protein kinase JAK1 (Homo sapiens, UniProt P23458); assay: Inhibition of JAK1
[21] = target: Tyrosine-protein kinase JAK2 (Homo sapiens, UniProt O60674); assay: Inhibition of JAK2
[22] = target: Tyrosine-protein kinase JAK3 (Homo sapiens, UniProt P52333); assay: Inhibition of JAK3
[23] = target: Mast/stem cell growth factor receptor Kit (Homo sapiens, UniProt P10721); assay: Inhibition of cKIt
[24] = target: Hepatocyte growth factor receptor (Homo sapiens, UniProt P08581); assay: Inhibition of cMet
[25] = target: Platelet-derived growth factor receptor alpha (Homo sapiens, UniProt P16234); assay: Inhibition of PDGFRalpha
[26] = target: RAC-alpha serine/threonine-protein kinase (Homo sapiens, UniProt P31749); assay: Inhibition of PKBalpha
[27] = target: Proto-oncogene tyrosine-protein kinase receptor Ret (Homo sapiens, UniProt P07949); assay: Inhibition of Ret
[28] = target: Tyrosine-protein kinase ZAP-70 (Homo sapiens, UniProt P43403); assay: Inhibition of ZAP70
[29] = Volume of distribution in rat; type: ADME, organism-based; conditions: in vivo
Liver microsomes = conditions: rat
Description: Clearance in rat liver microsomes

in vitro = conditions: rat, liver microsomes
Description: Half life in rat liver microsomes

Compound: CN1CCN(c2cccc(-c3cnn4c(N)c(-c5ccc(O)cc5)cnc34)c2)CC1
- pIC50 [1]: 7.52
- pIC50 [2]: 6.35
- pIC50 [3]: 6.47
- pIC50 [4]: 6.33

Compound: Cc1cc(NC(=O)OCC(C)C)ccc1-c1cnc2c(-c3cccc(N4CCN(C)CC4)c3)cnn2c1N
- pIC50 [1]: 7.64
- pIC50 [2]: 6.34
- pIC50 [3]: 6.34
- pIC50 [4]: 5.47

Compound: Cc1nc2c(-c3cccc(N4CCN(C)CC4)c3)cnn2c(N)c1-c1ccc(NC(=O)OCC(C)C)cc1
- pIC50 [1]: 6.94
- pIC50 [2]: < 6.00
- pIC50 [3]: < 6.00
- pIC50 [4]: < 5.00

Compound: CN1CCN(c2cccc(-c3cnn4c(N)c(-c5ccc(NC(=O)CCC6CCCC6)cc5)cnc34)c2)CC1
- pIC50 [2]: 6.87
- pIC50 [3]: 7.43
- pIC50 [4]: 6.16

Compound: Cc1nn2c(N)c(-c3cccc(O)c3)cnc2c1-c1ccc(N2CCN(C)CC2)cc1
- pIC50 [1]: < 6.00
- pIC50 [2]: < 6.00
- pIC50 [3]: < 6.00
- pIC50 [4]: 6.30

Compound: COc1cc(-c2cnc3c(-c4cccc(N5CCN(C)CC5)c4)cnn3c2N)ccc1NC(=O)OCC(C)C
- pIC50 [1]: 6.26
- pIC50 [2]: < 6.00
- pIC50 [3]: < 6.00
- pIC50 [4]: 5.04

Compound: CN1CCN(c2ccc(-c3cnn4c(N)c(-c5ccc(O)cc5)cnc34)cc2)CC1
- pIC50 [1]: 7.44
- pIC50 [2]: 6.40
- pIC50 [3]: 7.07
- pIC50 [4]: 5.89

Compound: CC(C)COC(=O)Nc1ccc(-c2cnc3c(-c4ccc(N5CCN(C)CC5)cc4)cnn3c2N)cc1
- bioavailability [5]: 95%
- Activity (Mus musculus [6]): Active
- inhibition in vivo at 100 mg/kg (Mus musculus [7]): 57%
- inhibition in vivo at 30 mg/kg (Mus musculus [8]): 21%
- inhibition in vivo at 10 mg/kg (Mus musculus [9]): -7%
- pIC50 [10]: < 5.00
- pIC50 [11]: 6.97
- clearance [12]: 32.1 mL/min/kg
- half-life [13]: 342 min
- pIC50 (Angiopoietin-1 receptor): 6.00
- pIC50 [14]: 7.40
- pIC50 [15]: 5.49
- pIC50 [16]: < 5.00
- pIC50 [17]: < 5.00
- pIC50 [18]: < 5.00
- pIC50 [19]: < 5.00
- pIC50 (Insulin receptor): < 5.00
- pIC50 [20]: < 5.00
- pIC50 [21]: < 5.00
- pIC50 [22]: < 5.00
- pIC50 [23]: 7.05
- pIC50 [24]: < 5.00
- pIC50 [25]: 7.13
- pIC50 [26]: < 5.00
- pIC50 [27]: 5.33
- pIC50 [28]: < 5.00
- Vd [29]: 6.42 L/kg
- pIC50 [1]: 7.66
- pIC50 [2]: 6.18
- pIC50 [3]: 6.74
- pIC50 [4]: 5.37
- CL (Liver microsomes): 161.2 µL/min
- half-life (in vitro): 8.6 min

Compound: CC(C)COC(=O)Nc1ccc(-c2cnc3c(-c4cccc(N5CCN(S(C)(=O)=O)CC5)c4)cnn3c2N)cc1
- pIC50 [1]: 6.68
- pIC50 [2]: < 6.00
- pIC50 [3]: 6.17
- pIC50 [4]: < 5.00
- CL (Liver microsomes): 58.4 µL/min
- half-life (in vitro): 23.7 min

Compound: CN1CCN(c2cccc(-c3cnn4c(N)c(-c5ccc(NS(=O)(=O)c6cccc(Cl)c6Cl)cc5)cnc34)c2)CC1
- pIC50 [1]: 7.55
- pIC50 [2]: < 6.00
- pIC50 [3]: < 6.00
- pIC50 [4]: 5.27

Compound: CN1CCN(c2cccc(-c3cnn4c(N)c(-c5ccc(NC(=O)Oc6ccccc6)cc5)cnc34)c2)CC1
- pIC50 [2]: 6.16
- pIC50 [3]: 6.71
- pIC50 [4]: 5.39

Compound: CN1CCN(c2ccc(-c3cnn4c(N)c(-c5ccc(NC(=O)Oc6ccccc6)cc5)cnc34)cc2)CC1
- pIC50 [2]: 6.40
- pIC50 [3]: 7.06
- pIC50 [4]: 6.00

Compound: CN1CCN(c2ccc(-c3cnn4c(N)c(-c5ccc(NC(=O)Nc6ccccc6Cl)cc5)cnc34)cc2)CC1
- pIC50 [2]: < 6.00
- pIC50 [3]: 6.67

Compound: CC(C)COC(=O)Nc1ccc(-c2cnc3c(-c4cccc(N5CCN(C)CC5)c4)cnn3c2N)cc1
- pIC50 [2]: 5.77
- pIC50 [3]: 6.23
- pIC50 [4]: 5.27
- CL (Liver microsomes): 612.5 µL/min
- half-life (in vitro): 2.3 min

Compound: CN1CCN(c2ccc(-c3cnn4c(N)c(-c5ccc(NC(=O)NCC6CCCCC6)cc5)cnc34)cc2)CC1
- pIC50 [2]: 6.84
- pIC50 [3]: 7.68

Compound: CC(C)COC(=O)Nc1ccc(-c2cnc3c(-c4cccc(N5CCOCC5)c4)cnn3c2N)cc1
- pIC50 [1]: 6.16
- pIC50 [2]: < 6.00
- pIC50 [3]: < 6.00
- pIC50 [4]: 5.13

Compound: CN1CCN(c2cccc(-c3cnn4c(N)c(-c5ccc(NC(=O)NCC6CCCCC6)cc5)cnc34)c2)CC1
- pIC50 [2]: 6.64
- pIC50 [3]: 7.15
- pIC50 [4]: 6.89

Compound: CN1CCN(c2cccc(-c3cnn4c(N)c(-c5ccc(NC(=O)c6ccc(C(F)(F)F)cc6)cc5)cnc34)c2)CC1
- pIC50 [2]: < 6.00
- pIC50 [3]: 6.53
- pIC50 [4]: 5.64

Compound: CN1CCN(c2ccc(-c3cnn4c(N)c(-c5cccc(O)c5)cnc34)cc2)CC1
- pIC50 [1]: 8.10
- pIC50 [2]: 8.70
- pIC50 [3]: 8.10
- pIC50 [4]: 7.02

Compound: CN1CCN(c2cccc(-c3cnn4c(N)c(-c5ccc(NC(=O)N(C)C6CCCCC6)cc5)cnc34)c2)CC1
- pIC50 [2]: 6.26
- pIC50 [3]: 6.96
- pIC50 [4]: 5.22

Compound: CN1CCN(c2ccc(-c3cnn4c(N)c(-c5ccc(NC(=O)CCC6CCCC6)cc5)cnc34)cc2)CC1
- pIC50 [2]: 6.85
- pIC50 [3]: 7.85
- pIC50 [4]: 5.99

Compound: CC(C)COC(=O)Nc1ccc(-c2cnc3c(-c4cccc(N5CCNCC5)c4)cnn3c2N)cc1
- pIC50 [1]: 8.15
- pIC50 [2]: 6.19
- pIC50 [3]: 6.51
- pIC50 [4]: 5.68
- CL (Liver microsomes): 29 µL/min
- half-life (in vitro): 48 min

Compound: CN1CCN(c2ccc(-c3cnn4c(N)c(-c5ccc(NC(=O)c6ccc(C(F)(F)F)cc6)cc5)cnc34)cc2)CC1
- pIC50 [2]: 6.00
- pIC50 [3]: 6.59
- pIC50 [4]: 5.08

Compound: CC(C)COC(=O)Nc1ccc(-c2cnc3c(-c4cccc(N5CCN(C(=O)CN)CC5)c4)cnn3c2N)cc1
- pIC50 [1]: 8.15
- pIC50 [2]: 6.12
- pIC50 [3]: 6.57
- pIC50 [4]: 5.72
- CL (Liver microsomes): 11.2 µL/min
- half-life (in vitro): 124 min

Compound: CN1CCN(c2ccc(-c3cnn4c(N)c(-c5ccc(NC(=O)N(C)C6CCCCC6)cc5)cnc34)cc2)CC1
- pIC50 [2]: 6.30
- pIC50 [3]: 6.75
- pIC50 [4]: 6.36

Compound: CN1CCN(c2cccc(-c3cnn4c(N)c(-c5ccc(NC(=O)Nc6ccccc6Cl)cc5)cnc34)c2)CC1
- pIC50 [2]: 6.00
- pIC50 [3]: 6.76

Compound: COCCN1CCN(c2ccc(-c3cnn4c(N)c(-c5ccc(NC(=O)OCC(C)C)cc5)cnc34)cc2)CC1
- pIC50 [1]: 7.43
- pIC50 [2]: 6.00
- pIC50 [3]: 6.46
- pIC50 [4]: 5.66
